Read-outs that look alike come from different tables or passages of the source.
Experiments:
mice [1] = experiment: acute in vivo bioassay of spinal opioid analgesic tolerance (ENDO-2 pre-treatment, warm water immersion tail flick test)
Source text: To evaluate the effects of the compounds in opioid tolerance an acute in vivo bioassay of opioid analgesic tolerance was employed. In this instance, either a large dose of the mu opioid receptor selective neuropeptide ENDO-2 is given or vehicle. When the analgesic effects are no longer evident, a second analgesic dose of ENDO-2 is given. The second analgesic dose of ENDO-2 is effective in the group pre-treated with saline, but not in the group that was pre-treated with the large dose of ENDO-2. When agmatine or when one of the SSA is given together with the large pre-treatment dose of ENDO-2, the second analgesic dose of ENDO-2 is effective. In this bioassay, agmatine and most of the SSAs prevented the development of opioid tolerance.
Formula I compounds from Table 2 were evaluated for their impact on the development of opioid analgesic tolerance when dosed central (intrathecally) and systemically (intraperitoneally). […] When a high dose of ENDO-2 is intrathecally injected a subsequent analgesic dose is no longer effective (30 minutes later) (Stone et al., 1997). This is a model of opioid-induced analgesic tolerance.
When that second group received a second injection of ENDO-2 (same dose as in the SAL group), the analgesic effect was not observed. Analgesic tolerance to ENDO-2 was, therefore, induced. […] AG 4 nmol (third bar from left).

mice [2] = experiment: development of central morphine tolerance (intrathecal morphine, warm water tail flick test); type: in vivo; details: for ED50 (nmol, i.t.): tail flick day 4
Procedure: On day 4, four cumulative doses of morphine were given intrathecally to assess tolerance in the warm water tail flick test.
(§1) Doses were administered t.i.d. every 8 hours for 4 days. On day 6, four cumulative doses of morphine were given subcutaneously to assess tolerance in the warm water (52° C.) tail flick test.

mice [3] = experiment: development of chronic systemic morphine tolerance (s.c. morphine, warm water 52° C. tail flick test); type: in vivo; details: for development of systemic morphine tolerance: systemic co-administration with morphine (FIGS. 7B-D)
Procedure: as §1

[4] = tested on: mice with chronic pain induced by nerve-injury; experiment: spinal nerve injury-induced neuropathic pain, von Frey monofilament tactile hypersensitivity; type: in vivo
nerve-injured mice [5] = experiment: rotarod assay of motor dysfunction and sedation; details: for rotarod performance: intravenously administered, doses effective in nerve-injured mice, 30 minutes post-injection
[6] = cardiovascular measures / heart rate after i.v. injection; details: in vivo
female mice = experiment: oral oxycodone self-administration model of opioid addiction (active vs control lever); type: in vivo
Procedure: FIGS. 6A and 6B show an in vivo model of opioid addiction in mice. […] Open symbols represent the lever pressing of mice on the “control” lever that result in no reward. Solid symbols represent the lever pressing of mice on the “active lever” which results in delivery of a 70 μL volume of oxycodone into a receptacle. The mice lick or drink the opioid from the receptacle.
Formula I compounds were assessed for similar effects in a model of oral oxycodone self-administration. […] Standard enclosed operant conditioning chambers modeled opioid addiction where in response to a light cue, mice have an opportunity to choose between one of two levers. Pressing one lever (the “Active” lever) results in delivery of a small quantity of oxycodone to a drinking receptacle where the mouse can lick or drink the fluid. Pressing the other lever (termed “Control” lever) results in no reward. In this experiment, female mice were separated into two groups; both groups were trained to lever press for oxycodone reward after pressing the “Active” lever of a two lever choice. Initially one lever press results in one delivery of opioid fluid. Pressing the “control” lever offers no reward. […] On day 15, they were required to press the active lever 3 times to seek the reward. […] The mice were given six injections over a period of 8 days. […] Responses were monitored from Day 20-40 of the experiment. […]

[7] = in vivo
nerve-injured mice [8] = details: intrathecal, previously observed; cited from earlier work
rats = details: Morgan et al. 2002; cited from earlier work
[9] = morphine i.t. ED50 (interval in brackets) after pre-treatment Morphine (10 nmol, i.t.) + compound (10 nmol, i.t.) or VEH b.i.d. 3 days
[10] = co-administered intrathecally (it) with tolerance-inducing ENDO-2 pre-treatment, agmatine 4 nmol
[11] = delivered systemically, 100 mg/kg ip, with intrathecal ENDO-2 pre-treatment
[12] = delivered systemically, ip, dose not given
[13] = IV, 0.45, 1.35, 4.5 micromoles/kg, induction and maintenance phase, ipsilateral hindpaw

| Compound | development of systemic morphine tolerance (mice [3]) | development of opioid analgesic tolerance to ENDO-2 (mice [1]; [10]) | development of opioid analgesic tolerance to ENDO-2 (mice [1]; [11]) | development of opioid analgesic tolerance to ENDO-2 (mice [1]; [12]) | hindpaw withdrawal thresholds (von Frey) [4, 13] | rotarod performance (nerve-injured mice [5]) | impact on cardiovascular measures [6] | also measured |
| --- | --- | --- | --- | --- | --- | --- | --- | --- |
| CCOC(=O)/N=C(/N)NCCCCNC(=O)OCC [J-1, ethyl (amino((4-((ethoxycarbonyl)amino)butyl)amino)methylene)carbamate] | reduces or prevents the development of systemic morphine tolerance |  |  |  |  |  |  | development of opioid analgesic tolerance to ENDO-2 (mice [1]; systemically, dose range of 1-30 mg/kg): did not prevent the development of opioid analgesic tolerance; development of central morphine tolerance (mice [2]; intrathecal co-administration with morphine (FIG. 7A)): prevented the development of central morphine tolerance; ED50 (nmol, i.t.) (mice [2]; [9]): 2.86 (2.41, 3.40) nmol; ED50 (nmol, i.t.) (mice [2]; morphine i.t. ED50 (interval in brackets) after pre-treatment Saline + compound (10 nmol, i.t.) b.i.d. 3 days): 3.82 (2.95, 4.94) nmol; time to onset of effect compared to agmatine ([4]; mouse, in vivo): significantly earlier time to onset of effect |
| CCOC(=O)NCCCCNC(=N)N [J-2, ethyl (4-guanidinobutyl)carbamate] | reduces or prevents the development of systemic morphine tolerance | prevented the development of opioid analgesic tolerance | prevented the development of opioid analgesic tolerance |  |  |  |  |  |
| CCOC(=O)/N=C(\NCCCCNC(C)=O)NC(=O)OCC [J-3] |  | prevented the development of opioid analgesic tolerance |  | prevented the development of opioid analgesic tolerance | the hindpaw withdrawal thresholds elevated toward control levels of responding | did not impact rotarod performance | no impact on cardiovascular measures | response compared to the response of agmatine ([4]; IV, 0.45, 1.35, 4.5 micromoles/kg): No significant difference |
| CC(=O)NCCCCN/C(=N\C(=O)OC(C)(C)C)NC(=O)OC(C)(C)C [J-4, 4-(2,3-bis(tert-butyloxycarbonyl)guanidino)butylacetamide] |  |  |  | prevented the development of opioid analgesic tolerance | the hindpaw withdrawal thresholds elevated toward control levels of responding | did not impact rotarod performance | no impact on cardiovascular measures | reduction of established neuropathic pain compared with agmatine at the same dose ([4]; IV, 1.35 micromoles/kg, maintenance phase for J-4 (FIG. 2F vs 2B)): distinctly greater than that of agmatine at the same dose; preference for active versus control lever (oxycodone) (female mice; intraperitoneal (IP) injection prior to session (FIG. 6B)): showed greatly reduced preference for the active versus the control lever; preference for active versus control lever (oxycodone) (female mice; intravenous injections, 30 mg/kg, six injections over 8 days): showed little preference for the lever after injections were initiated |
| CC(=O)NCCCCNC(=N)N [J-5, N-(4-guanidinobutyl)acetamide] |  | prevented the development of opioid analgesic tolerance | prevented the development of opioid analgesic tolerance |  |  |  |  |  |
| CCOC(=O)/N=C(/N)NCCCCNC(C)=O [J-6] |  | prevented the development of opioid analgesic tolerance | prevented the development of opioid analgesic tolerance |  |  |  |  |  |
| CCOC(=O)/N=C(/N)NCCCCN [J-7, 4-(2-(ethoxycarbonyl)guanidino) butan-1-aminium 2,2,2-trifluoroacetate] |  |  | prevented the development of opioid analgesic tolerance |  |  |  |  | development of opioid analgesic tolerance to ENDO-2 (mice [1]; systemically delivered, 10 mg/kg dose): prevented the development of opioid analgesic tolerance |
| CCOC(=O)/N=C(\NCCCCN)NC(=O)OCC.Cl [J-8, 4-(2,3-bis(ethoxycarbonyl)guanidino)butan-1-aminium chloride] |  | prevented the development of opioid analgesic tolerance |  | prevented the development of opioid analgesic tolerance |  |  | no impact | hindpaw withdrawal thresholds (von Frey) ([4]; IV, five doses 0.045, 0.0135, 0.45, 1.35, 4.5 micromoles/kg (approximately 1-100 mg/kg), induction phase): the hindpaw withdrawal thresholds elevated significantly toward control levels of responding in a dose-dependent manner; motor impairment (nerve-injured mice [5]; early side effects studies): no impact |
| CN1CC[C@]23c4c5ccc(O)c4O[C@H]2[C@@H](O)C=C[C@H]3[C@H]1C5 [Morphine, morphine, reference compound] |  |  |  |  |  |  |  | ED50 (nmol, i.t.) (mice [2]; [9]): 10.84 (4.94, 23.82) nmol; ED50 (mice [3]; Mus musculus, sc, 144 h, morphine s.c. ED50 after pre-treatment Morphine (10 mg/kg, s.c.) + compound (3 mg/kg s.c.) or VEH t.i.d. 4 days, tail flick day 6, read-out: ED50 (95% CI) (mg/kg, s.c.)): 24.9 mg/kg |
| N=C(N)NCCCCN [agmatine, 1-(4-aminobutyl)guanidine, reference compound] | reduces or prevents the development of systemic morphine tolerance | protected against the induction of opioid tolerance |  |  | the hindpaw withdrawal thresholds elevated toward control levels of responding | did not impact rotarod performance |  | impact on cardiovascular measures [7]: no impact on cardiovascular measures; rotarod performance (nerve-injured mice [8]): does not impact rotarod performance; heroin-induced self-administration (rats): diminishes heroin-induced self-administration in rats |

— US12098118B2 (Regents of the University of Minnesota, priority 2018, dated 2024)
